Results from patent US20060178307A1, “Modulation of NMDA receptor currents via orexin receptor and/or CRF receptor” (priority 2005, published 2006).
“Also recorded” adds a separate entry of the source. Where no end group is shown, it is not given here.

Tests used:
[1] = test system: 10% ethanol consumption; experiment: Voluntary ethanol consumption, limited-access two-bottle choice, icv infusion; format: in vivo, Long Evans rats; conditions: 5 μg ICV, n=14
Method: Agents in these in vivo studies were administered to either the lateral ventricle (icv) or ventral tegmental area (VTA) in rats by cannulae, which were implanted as follows. One week after the rats achieved baseline drinking and lever pressing levels in the 2-bottle choice and ethanol self-administration paradigms described below, they were anesthetized with 75 mg/kg pentobarbital sodium and placed in a stereotaxic frame. The head was shaved and scrubbed with an antiseptic solution of betadine/2% H2O2, followed by 2.5% topical xylocalne jelly. The skull was exposed and two to three holes were drilled for implantation of sterile miniature skull screws (⅛″, Small Parts, Inc.). […]
These experiments test the effects of the CRF system on voluntary ethanol consumption using a limited-access paradigm. […] Animal weights were measured daily in order to calculate the gram per kilogram intake. Ethanol preference (%) was calculated as the grams of ethanol consumed divided by the total fluid consumption (grams of ethanol+grams of water). The data was corrected for evaporation and spillage by subtracting the mean fluid loss measured in four drinking tubes placed on empty cages. […]
The effects of CRF (5 μg) and the CRF inhibitor CRF (6-33) (5 μg) on limited access (30 min) 10% ethanol drinking were measured using a limited-access two-bottle choice procedure.

[2] = test system: NMDAR eEPSCs; conditions: cited from earlier work
[3] = test system: NMDAR-mediated currents in VTA dopamine cells; experiment: CRF-related peptides on NMDAR-mediated currents at excitatory synapses onto VTA dopamine cells; format: cell-based; conditions: mammalian brain

CRF (6-33): indirect CRF receptor antagonist that acts by displacing CRF from CRF-BP (ISLDLTFHLLREVLEMARAEQLAQQAHS; Corticoliberin; UniProt P06850 159-186, looked up, fragment)
10% ethanol consumption ([1]; limited access, compared to CRF alone): significantly reduced | water consumption [1]: no effect; also recorded: did not reduce

CRF: Corticotrophin-releasing factor, a 41 amino acid peptide; direct CRF receptor agonist (SEEPPISLDLTFHLLREVLEMARAEQLAQQAHSNRKLMEII; ends and bridges not checked; UniProt P06850 154-194, looked up)
potentiation of NMDARs ([2]; 10 nM CRF, mice): no potentiation | NMDAR eEPSCs, concentration dependent ([2]; mice (FIG. 13)): increased | potentiation of NMDAR currents [3]: increases
